Test results reported in patent US20100280015A1 (priority 2007, published 2010).
Counter-ions that a name gives are not always drawn.

Molecular target: α7-subtype of nicotinic receptors (Rattus norvegicus, UniProt Q05941)
Test: biochemical
Type: binding

Sequence of α7-subtype of nicotinic receptors (Q05941 23-502): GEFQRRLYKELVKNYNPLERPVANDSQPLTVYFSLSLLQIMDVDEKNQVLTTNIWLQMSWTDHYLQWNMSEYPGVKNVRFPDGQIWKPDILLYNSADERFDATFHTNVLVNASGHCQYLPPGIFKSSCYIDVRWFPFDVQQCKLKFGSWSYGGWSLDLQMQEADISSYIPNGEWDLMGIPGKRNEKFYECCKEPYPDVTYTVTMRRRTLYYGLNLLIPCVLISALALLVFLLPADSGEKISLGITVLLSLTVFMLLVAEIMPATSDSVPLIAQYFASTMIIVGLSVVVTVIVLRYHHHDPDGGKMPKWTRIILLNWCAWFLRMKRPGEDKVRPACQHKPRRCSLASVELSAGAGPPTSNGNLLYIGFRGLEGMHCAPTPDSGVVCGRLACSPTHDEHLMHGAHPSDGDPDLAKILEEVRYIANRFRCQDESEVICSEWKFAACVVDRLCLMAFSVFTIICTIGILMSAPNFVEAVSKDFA

SMILES	IC50
c1ccc(Oc2ccccc2-c2nnc(N3CCN4CCC3CC4)o2)cc1 [Compound A1, 4-[5-(2-Phenoxy-phenyl)-[1,3,4]oxadiazol-2-yl]-1,4-diaza-bicyclo[3.2.2]nonane fumaric acid salt]	< 100 nM
c1ccc(Oc2cccc(-c3nnc(N4CCN5CCC4CC5)o3)c2)cc1 [Compound A2, 4-[5-(3-Phenoxy-phenyl)-[1,3,4]oxadiazol-2-yl]-1,4-diaza-bicyclo[3.2.2]nonane fumaric acid salt]	< 1000 nM
